Patent US20220185744A1, “FERTILISING COMPOSITION WHICH INCLUDES A PLANT-ASSIMILABLE PHOSPHORUS AND CALCIUM POTENTIATOR AND USE THEREOF” (priority 2019, published 2022)

test system: maize plants; assay: Pot trial: single root-exudate metabolites applied to soil, dry biomass of maize plants at 6 weeks; format: in vivo; settings: 1 kg/ha, pot trial
Text: These metabolites were: gluconic acid, glyceric acid, lactic acid, glucose, threonic acid, fructose, aspartic acid, serine, glycerol, arabinose and glutamine. […] The effect of the metabolites was compared with a negative control (no treatment) and a positive control with a conventional phosphate fertiliser (triple superphosphate at a dose of 100 phosphorus fertiliser units —P2O5— per hectare). […] This level of assimilable phosphorus corresponds to 4.5 kg of P2O5 per hectare (considering 30 centimetres of arable soil and an average density of 1,300 kg/m^3, the mass per hectare would be approximately 3,900 tonnes).

Row | Structure (SMILES) | Growth enhancement in maize (in words)
1 | O=C(O)C(O)CO (centres unmarked) [Glyceric acid, 2,3-dihydroxypropanoic acid] | the most growth-enhancing metabolite in maize

same assay, conditions: metabolite 1 kg/ha in pot with 3 kg soil (assimilable P 0.5 ppm), triple superphosphate 100 P2O5 units/ha

Row | Structure (SMILES) | Dry biomass of maize plants at 6 weeks of growth, dry weight
2 | O=C[C@@H](O)[C@H](O)[C@H](O)CO [Arabinose] | 1.26 g
3 | N[C@@H](CC(=O)O)C(=O)O [Aspartic acid] | 1.16 g
4 | CC(O)C(=O)O (centres unmarked) [Lactic acid] | 1.73 g
5 | NC(=O)CC[C@H](N)C(=O)O [Glutamine] | 1.55 g
6 | O=C(O)[C@@H](O)[C@H](O)CO [Threonic acid] | 1.14 g
7 | N[C@@H](CO)C(=O)O [Serine] | 1.31 g
8 | OCC(O)CO [Glycerol] | 1.30 g
9 | O=C(CO)[C@@H](O)[C@H](O)[C@H](O)CO [Fructose] | 1.38 g
10 | O=C(O)[C@H](O)[C@@H](O)[C@H](O)[C@H](O)CO [Gluconic acid] | 1.77 g
11 | O=C(O)C(O)CO (centres unmarked) [Glyceric acid, 2,3-dihydroxypropanoic acid] | 1.93 g
